Assay results: patent publication US5585492A, “LTA4 Hydrolase inhibitors” (priority 1994, dated 1996)
Where a name gives a salt, the structure may show the parent alone. Read-outs that look alike come from different tables or passages of the source.

Assays:
[1] = target: T1, recombinant human LTA4 hydrolase (Homo sapiens, UniProt P09960); experiment: Recombinant Human LTA4 Hydrolase Assay for LTA4 Hydrolase Inhibitor Activity (LTB4 by enzyme-linked immunoassay); format: biochemical; conditions: for IC50: read-out: Recombinant Human LTA4 Hydrolase Assay IC50 LTA4H
T1 construct: made in house; host or cells: Spodoptera frugiperda Sf-9 cells, baculovirus (AcNPV) expression vector
T1 sequence (P09960 1-611): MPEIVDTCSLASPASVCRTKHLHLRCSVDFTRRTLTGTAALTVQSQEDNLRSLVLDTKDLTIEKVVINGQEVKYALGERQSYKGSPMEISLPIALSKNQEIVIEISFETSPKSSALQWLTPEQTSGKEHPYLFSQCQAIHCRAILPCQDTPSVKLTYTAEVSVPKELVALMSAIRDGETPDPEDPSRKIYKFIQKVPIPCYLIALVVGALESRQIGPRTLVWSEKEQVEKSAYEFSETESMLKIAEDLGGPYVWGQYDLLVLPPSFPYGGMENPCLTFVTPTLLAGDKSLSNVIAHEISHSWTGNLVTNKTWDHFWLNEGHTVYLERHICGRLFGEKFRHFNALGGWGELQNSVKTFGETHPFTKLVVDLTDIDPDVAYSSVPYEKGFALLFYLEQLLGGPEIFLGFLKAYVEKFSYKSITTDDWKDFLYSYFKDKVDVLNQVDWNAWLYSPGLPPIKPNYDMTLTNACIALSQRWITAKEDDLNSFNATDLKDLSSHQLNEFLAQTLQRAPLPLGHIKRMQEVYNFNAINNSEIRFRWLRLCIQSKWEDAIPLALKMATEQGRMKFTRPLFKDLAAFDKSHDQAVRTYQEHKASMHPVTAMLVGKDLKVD
Protocol: Compounds of the present invention were tested for LTA4 hydrolase inhibitor activity against recombinant human LTA4 hydrolase (rhLTA4 H). […] Briefly, LTA4 hydrolase encoding DNA was amplified by polymerase chain reaction using a pair of oligonucleotide primers based on the nucleotide sequence from the 5'-end, and the complement of the 3'-end, of the coding region of the LTA4 hydrolase gene, the nucleotide sequence of which gene is known. […] A λgtll human placental cDNA library (Clonetech, Palo Alto, Calif.) provided the nucleic acid template.
One or more predetermined amounts of a compound of the invention were incubated in assay buffer (0.1M potassium phosphate, 5 mg/ml fatty acid free BSA, 10% DMSO, pH 7.4) for 10 minutes at room temperature with 250 ng of recombinant hLT4 H to allow binding, if any, between the enzyme and inhibitor. The stock enzyme solution was 1 mg/ml LTA4 hydrolase, 50 mM Tris, pH 8.0, 150 mM NaCl, 2.5 mM beta-mercaptoethanol, 50% glycerol. […] LTA4 (i.e., substrate) was prepared from the methyl ester of LTA4 (Biomol, Inc., Plymouth Meeting, Pa.) by treating the methyl ester with 30 molar equivalents of LiOH at room temperature for 18 hours. The LTA4 substrate in its free acid form was kept frozen at -80° C. until needed. […] Each reaction was carried out at room temperature for 10 minutes. The reaction was stopped by diluting 25 μl of the reaction mixture with 500 μl of the assay buffer without DMSO. LTB4 was quantified in the diluted sample by a commercially available enzyme-linked immunoassay [Caymen Chemical Co., Ann Arbor, Mich.] using the method recommended in the manufacturer's instructions and compared to the amount of LTB4 produced in a negative control (i.e., essentially identical conditions except without addition of an inhibitor compound). The IC50 was routinely calculated from the data produced.

[2] = tested on: LTB4 production in human blood; experiment: Inhibition of Calcium Ionophore-Induced LTB4 Production in Human Blood (HWB); format: cell-based; conditions: Homo sapiens, read-out: Inhibition of Calcium Ionophore-Induced LTB4 Production in Human Blood IC50 HWB
Protocol: One or more concentrations of the leukotriene A4 hydrolass inhibitor compounds being tested were prepared (diluted in DMSO) and 2 μl added and gently mixed with the diluted whole blood. After incubating for 15 minutes at 37° C. in a humidified incubator, calcium ionophore A23187 (Sigma Chemical Co., St. Louis, Mo.) was added to a final concentration of 20 mcg/ml and the incubation continued under the same conditions for an additional 10 minutes to allow LTB4 formation. The reaction was terminated by centrifugation (833 g, 10 minutes at 4° C.) and supernatant were analyzed for LTB4 and thromboxane by commercially available enzyme-linked immunoassays (Caymen Chemical Co., Ann Arbor, Mich.) according to the manufacturer's instructions. The IC50 of each test compound was determined from the amount of inhibition of LTB4 production as compared to an essentially identical assay in which no inhibitor compound was present.

[3] = human whole blood, A23187 20 mcg/ml

Compound | IC50 [1] | IC50 [2, 3] | further results
Nc1ccc2ncn(CCOc3ccc(Cc4ccccc4)cc3)c2c1 [Example 362B] | 1320 nM | 4580 nM | 
COC[C@@H]1CCCN1CCOc1ccc(Cc2ccccc2)cc1 [Example 400] | 60 nM | 380 nM | 
c1ccc(COc2ccc(OCCn3cnc4ccccc43)cc2)cc1 [Example 345] |  |  | inhibition at 3 µM [1]: 35%
NC(=O)C1CCN(CCCOc2ccc(Cc3ccccc3)cc2)CC1 [Example 226, 1-[3-[4-(phenylmethyl)phenoxy]propyl]-4-piperidinecarboxamide] |  |  | inhibition at 100 µM [1]: 4%
O=C(CNCCOc1ccc(Cc2ccccc2)cc1)OCc1ccccc1 [Example 319] |  |  | inhibition at 100 µM [1]: 47%
C#CC(CC(=O)OCC)NCCOc1ccc(Cc2ccccc2)cc1 (stereo not shown) [Example 408] |  |  | inhibition at 100 µM [1]: 76%
NC(=O)C1CCCN(CCCOc2ccc(Cc3ccccc3)cc2)C1 (stereo not shown) [Example 244] |  |  | inhibition at 100 µM [1]: 15%
CCOC(=O)C1CCN(CCOc2ccc(Cc3cccnc3)cc2)CC1 [Example 311] |  |  | inhibition at 100 µM [1]: 44%
c1ccc(Cc2cnc(OCCN3CCCC3)s2)cc1 [Example 76] | 2900 nM | 3500 nM | 
C(=C\c1ccc(OCCN2CCCC2)cc1)/c1ccccc1 [Example 46] | 1350 nM | 1500 nM | 
c1cc(Cc2ccc(OCCN3CCCC3)cc2)co1 [Example 136] | 77 nM |  | 
c1ccc(Oc2ccc(OCCCn3cnc4ccccc43)cc2)cc1 [Example 343] |  |  | inhibition at 3 µM [1]: 40%
c1ccc(Cc2ccc(OCCn3cnc4cccnc43)cc2)cc1 [Example 338C] |  | 9150 nM | inhibition at 3 µM [1]: 34%
c1ccc(COc2ccc(OCCn3cnc4cccnc43)cc2)cc1 [Example 346A] |  |  | inhibition at 3 µM [1]: 31%
Clc1cc(Cc2ccccc2)ccc1OCCN1CCCC1 [Example 113] | 1230 nM | 2010 nM | 
O=C(OCc1ccccc1)[C@@H]1CCCN1CCCOc1ccc(Cc2ccccc2)cc1 [Example 228, Phenylmethyl 1-[3-[4-(phenylmethyl)phenoxy]propyl]-L-prolinate] |  |  | inhibition at 3 µM [1]: 28%
NC(=O)C1CCCN(CCCOc2ccc(Oc3ccccc3)cc2)C1 (stereo not shown) [Example 250] | 4900 nM | 1770 nM | 
Cc1ccccc1COc1ccc(OCCN2CCCC2)cc1 [Example 210] |  |  | inhibition at 25 µM [1]: 4%
CC(=O)NC1CCN(CCOc2ccc(Cc3ccccc3)cc2)CC1 [Example 238] | 50 nM | 180 nM | 
Cc1nc(COc2ccc(OCCN3CCCC3)cc2)cs1 [Example 202] |  |  | inhibition at 3 µM [1]: 44%
Clc1cccc(Cl)c1COc1ccc(OCCN2CCCC2)cc1 [Example 204] |  |  | inhibition at 25 µM [1]: 49%
Fc1ccc(Oc2ccc(OCCn3cnc4cccnc43)cc2)cc1 [Example 354A] |  |  | inhibition at 3 µM [1]: 51%
Clc1ccc(Cc2ccc(OCCN3CCCC3)cc2)cc1 [Example 140] | 60 nM | 1010 nM | 
CC1(CN2CCCC2)Cc2cc(Cc3ccccc3)ccc2O1 (stereo not shown) [Example 285] | 130 nM | 1730 nM | 

Compound | IC50 [1] | IC50 [2, 3] | further results
N#CC1CCN(CCOc2ccc(Cc3ccccc3)cc2)CC1 [Example 279] | 470 nM |  | 
COC(=O)[C@@H]1CCCN1CCOc1ccc(Cc2ccccc2)cc1 [Example 225, Methyl 1-[2-[4-(phenylmethyl)phenoxy]ethyl]-2S-pyrrolidine-2-carboxylate, monohydrochloride, hydrate] | 450 nM | 1860 nM | 
COC(=O)CCNCCOc1ccc(Cc2ccccc2)cc1 [Example 324] | 220 nM | 586 nM | 
CC1(CN2CCC(C(N)=O)CC2)Cc2cc(Cc3ccccc3)ccc2O1 (stereo not shown) [Example 286] |  |  | inhibition at 100 µM [1]: 41%
O=C(O)c1ccc(Oc2ccc(OCCN3CCCC3)cc2)cc1 [Example 64] |  |  | inhibition at 25 µM [1]: 52%
Fc1cc(Cc2ccccc2)ccc1OCCN1CCCC1 [Example 115] | 60 nM | 190 nM | 
CCOC(=O)CNCCCOc1ccc(Cc2ccccc2)cc1 [Example 264] | 3000 nM | 1100 nM | 
c1ccc(Cc2ccc3c(c2)CC(Cn2nc4ccncc4n2)O3)cc1 (stereo not shown) [Example 361A] |  |  | inhibition at 100 µM [1]: 24%
O=C(O)CCNCCCOc1ccc(Cc2ccccc2)cc1 [Example 431] | 140 nM | 280 nM | 
CCOC(=O)C1CCN(CCOc2ccc(Cc3ccc(F)cc3)cc2)CC1 [Example 312] |  |  | inhibition at 100 µM [1]: 46%
NC(=O)NC1CCN(CCOc2ccc(Cc3ccccc3)cc2)C1 (stereo not shown) [Example 453] | 81 nM | 350 nM | 
c1ccc(Cc2ccc3c(c2)CC(Cn2nc4cccnc4n2)O3)cc1 (stereo not shown) [Example 360B] |  |  | inhibition at 100 µM [1]: 19%
O=C(O)c1ccc(-c2ccc(OCCN3CCCC3)cc2)cc1 [Example 63] |  |  | inhibition at 25 µM [1]: 40%
c1cc(Cc2ccc(OCCN3CCCC3)cc2)ccn1 [Example 126] | 630 nM |  | 
COc1cccc(Cc2ccc(OCCN3CCCC3)cc2)c1 [Example 127] | 840 nM | 2480 nM | 
NC(=O)NC1CCN(CCOc2ccc(Cc3ccccc3)cc2)CC1 [Example 456] | 87 nM | 440 nM | 
c1ccc(Cc2ccc3c(c2)CC(Cn2nnc4cccnc42)O3)cc1 (stereo not shown) [Example 360A] |  |  | inhibition at 100 µM [1]: 36%
CC(C)(C)OC(=O)C1CCCN1CCCOc1ccc(Cc2ccccc2)cc1 (stereo not shown) [Example 260] |  |  | inhibition at 3 µM [1]: 14%
O=C1CC2CCCC(C1)N2CCOc1ccc(Cc2ccccc2)cc1 [Example 303] | 97 nM |  | IC50 [2]: 1650 nM
COC(=O)CCN(C)CCCOc1ccc(Cc2cccs2)cc1 [Example 331] | 16 nM | 95 nM | 
NC(=O)CC1CCN(CCOc2ccc(Cc3ccccc3)cc2)C1 (stereo not shown) [Example 426] | 210 nM | 403 nM | 
c1coc(Cc2ccc(OCCN3CCCC3)cc2)c1 [Example 135] | 47 nM |  | 
c1ccc(Cc2ccc(OCCN3CCCCC3)cc2)cc1 [Example 401] | 55 nM |  | 

The next lines start with results.

IC50 [1] | IC50 [2, 3] | Compound | further results
190 nM | 240 nM | CCOC(=O)CCN(C)CCCOc1ccc(Cc2ccccc2)cc1 [Example 412] | 
480 nM |  | c1ccc(Cc2ccc(SCCN3CCCC3)cc2)cc1 [Example 68] | 
4100 nM | 232 nM | COC(=O)C1CCN(CCOc2ccc(Cc3ccccc3)cc2)C1 (stereo not shown) [Example 276] | 
37 nM | 120 nM | O=C(COc1ccc(Cc2ccccc2)cc1)N1CCCCC1 [Example 387, 1-(1-piperidinyl)-2-[4-(phenylmethyl)phenoxy]ethanone] | 
16 nM | 360 nM | NC(=O)C1CCN(CCOc2ccc(Cc3ccccc3)cc2)C1 (stereo not shown) [Example 425] | 
9000 nM |  | NC(=O)C1CCN(CCOc2ccc(Cc3ccccc3)cc2)CC1 [Example 239] | 
70 nM | 890 nM | COc1ccc(Cc2ccc(OCCN3CCCC3)cc2)cc1 [Example 128] | 
20 nM | 290 nM | NC1CCN(CCOc2ccc(Cc3ccccc3)cc2)C1 (stereo not shown) [Example 452] | 
18 nM | 49 nM | O=C(O)CCNCCCCOc1ccc(Cc2ccccc2)cc1 [Example 433] | 
210 nM | 420 nM | CC(=O)NC1CCN(CCOc2ccc(Cc3ccccc3)cc2)C1 (stereo not shown) [Example 227] | 
11000 nM | 7980 nM | CCOC(=O)CC(NCCOc1ccc(Cc2ccccc2)cc1)c1cccnc1 (stereo not shown) [Example 271] | 
